According to patent publication US10028933B2, “Compositions and methods for inhibiting the growth of multi-drug resistant microbes” (priority 2015, dated 2018):
Entries after “also recorded” stand apart in the source; their conditions may differ.

How the values were obtained:
[1] = preclinical studies; cited from earlier work
Francisella tularensis = details: cited from earlier work
[2] = long term oral exposures up to 33 weeks; cited from earlier work
Salmonella Typhimurium = details: cited from earlier work
[3] = system: B. cenocepacia strain k56-2; details: 5 μM AR-13 alone
human CF and non-CF MDMs = assay: macrophage viability assay at 24 h
P. aeruginosa [4] = details: AR-13 alone
P. aeruginosa [5] = assay: direct bacterial killing assay in media alone of CF clinical P. aeruginosa isolate (24 hours); details: media devoid of human macrophages or neutrophils, n=3
MRSA = assay: bacterial killing assay of CF clinical MRSA isolate in media (optical absorbance density, 24 hours); type: cell-based
B. cenocepacia = assay: direct bacterial killing assay in media alone (optical absorbance density over 24 hours)

For `NCC(=O)Nc1ccc(-n2nc(C(F)(F)F)cc2-c2ccc3c(ccc4ccccc43)c2)cc1` [AR-12], the “accumulation in tissues relative to blood level concentrations” value [1] is given as “exceeding the blood level concentrations by several fold”, the “blood brain barrier penetration” value [1] is given as “rapid blood brain barrier penetration” and the “antibacterial activity against intracellular Francisella tularensis in macrophages” value (Francisella tularensis) is given as “antibacterial activity”. The “safety profile in phase I study” value [2] was “acceptable safety profile” and the “antibacterial activity against intracellular Salmonella Typhimurium in macrophages” value (Salmonella Typhimurium) was “antibacterial activity”.
For `NS(=O)(=O)Nc1ccc(-n2nc(C(F)(F)F)cc2-c2ccc3c(ccc4ccccc43)c2)cc1` [AR-13, N-{4-[5-(Phenanthren-2-yl)-3-(trifluoromethyl)-1H-pyrazol-1-yl]phenyl}sulfuric diamide], the “reduction in B. cenocepacia burden in infected CF and non-CF macrophages” value [3] was 23%, the “AR-13 concentrations tolerated by CF and non-CF macrophages and neutrophils” value (human CF and non-CF MDMs; CF and non-CF macrophages and neutrophils) was “up to 10 μM” and the “macrophage viability” value (human CF and non-CF MDMs; human CF and non-CF MDMs, uninfected or infected with B. cenocepacia, 24 h) was “no significant differences in cell viability; also recorded: does not impact macrophage viability”. For the same compound, the “AR-13 concentrations resulting in increased toxicity” value (human CF and non-CF MDMs; uninfected MDMs) was “above 10 μM”, the “reduction in P. aeruginosa burden in CF neutrophils” value (P. aeruginosa [4]; CF neutrophils) was 70% and the “reduction in P. aeruginosa burden in non-CF neutrophils” value (P. aeruginosa [4]; non-CF neutrophils) was 66%. The “direct killing of P. aeruginosa in media” value (P. aeruginosa [5]) was “did not demonstrate direct killing; also recorded: did not enhance bacterial killing in media; also recorded: no direct effect”, the “killing of MRSA in media” value (MRSA; 24 hours, media) was “bacterial optical density increases as the dose of AR-13 decreases” and the “reduction of optical absorbance density of MRSA compared to no treatment” value (MRSA; CF clinical MRSA isolate, 24 hour period, n=3) was “about 1.3 fold”. For the same compound, the “AR-13 concentration of greatest efficacy against MRSA (dose titration)” value (MRSA; dose titration 5, 2.5, 1.25 μM, 24 hours, n=3) was 5 µM, the “reduction of optical absorbance density of B. cenocepacia compared to no treatment” value (B. cenocepacia; AR-13 alone vs B. cenocepacia alone, media, 24 hour period, n=3) was “about 1.3 fold” and the “direct killing / bacterial growth of B. cenocepacia in media alone” value (B. cenocepacia; media alone, 24 hours, AR-13 5 μM) was “significant reduction in bacterial growth; also recorded: direct killing effect”.
